# Results published in ChEMBL document CHEMBL3739335, “Phosphonooxymethyl Prodrug of Triptolide: Synthesis, Physicochemical Characterization, and Efficacy in Human Colon Adenocarcinoma and Ovarian Cancer Xenografts” (J Med Chem, 2015).
# Legend:
# [1] = biological target: T1, Alkaline phosphatase, tissue-nonspecific isozyme (Bos taurus, UniProt P09487); assay: Drug level in glycine buffer treated with Sodium (((5bS,6aS,7aR,8R,8aS,9aS,9bS,10aS,10bS)-8a-Isopropyl-10b-methyl-3-oxo-1,2,3,5,5b,6,6a,8,8a,9a,9b,10b-dodecahydrotris-(oxireno)[2',3':4b,5;'',3'':6,7;2''',3''':8a,9]phenanthro[1,2-c]furan-8-yl)oxy)methyl Phosphate at pH 9.8 in presence of bovine intestinal mucosal alkaline phosphatase; details: cattle, isolated protein
# T1 sequence (P09487 whole entry): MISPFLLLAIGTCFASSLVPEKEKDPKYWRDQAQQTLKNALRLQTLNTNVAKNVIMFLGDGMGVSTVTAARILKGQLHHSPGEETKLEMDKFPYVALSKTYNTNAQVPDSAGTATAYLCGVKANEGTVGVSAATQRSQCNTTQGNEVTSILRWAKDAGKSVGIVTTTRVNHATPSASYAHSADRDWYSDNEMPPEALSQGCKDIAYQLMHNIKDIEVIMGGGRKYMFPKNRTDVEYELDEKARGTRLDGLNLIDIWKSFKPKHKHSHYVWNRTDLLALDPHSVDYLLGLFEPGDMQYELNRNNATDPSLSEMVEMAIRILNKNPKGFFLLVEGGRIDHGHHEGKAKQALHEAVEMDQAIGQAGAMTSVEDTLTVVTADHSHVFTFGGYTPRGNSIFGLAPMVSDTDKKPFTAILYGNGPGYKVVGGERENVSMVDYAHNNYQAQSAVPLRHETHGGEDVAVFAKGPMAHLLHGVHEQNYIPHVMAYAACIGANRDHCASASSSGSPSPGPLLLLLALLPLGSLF
# [2] = Half life of the compound
SMILES,Drug metabolism [1],half-life [2]
CC(C)[C@]12O[C@H]1[C@@H]1O[C@]13[C@]1(O[C@H]1C[C@H]1C4=C(CC[C@@]13C)C(=O)OC4)[C@@H]2O [TRIPTOLIDE],metabolite_detected,–
C=O [FORMALDEHYDE],metabolite_detected,1.5 min
